Experimental data published in patent US20200368247A1, “CENICRIVIROC FOR THE TREATMENT OF FIBROSIS” (Tobira Therapeutics, Inc., priority 2014, published 2020).
Where two headings read alike, the source gives them in different places.

Key:
[1] = Study 202 post-hoc APRI and FIB-4 fibrosis index scores; format: in vivo, human
Protocol: APRI and FIB-4 scores were calculated. Change in score category from baseline (BL) to Weeks 24 and 48 was assessed in patients with non-missing data. Correlations between changes from BL in APRI and FIB-4 scores, and MCP-1 (CCR2 ligand) and sCD14 (inflammatory biomarker) levels were evaluated.

[2] = for SAE: Suicidal ideation: through Week 48
Text: Subjects with a history of HIV-2, hepatitis B and/or C, cirrhosis of the liver or any known active or chronic active liver disease were excluded from the study.
Most AEs were mild or moderate (Grade 1 or Grade 2). […] None of the Grade ≥3 AEs (preferred terms) were reported in more than 1 subject. Table 28 provides an overview of deaths, SAES, AEs, AEs by severity, AEs related to study medication, and AE leading to discontinuation.

[3] = All CVC (N = 115), EFV (N = 28)

Compound: CCCCOCCOc1ccc(-c2ccc3c(c2)/C=C(/C(=O)Nc2ccc([S@@+]([O-])Cc4cncn4CCC)cc2)CCCN3CC(C)C)cc1 [CVC, (S)-8-[4-(2-Butoxyethoxy)phenyl]-1-isobutyl-N-(4-{[(1-propyl-1H-imidazol-5-yl)methyl]sulfinyl}phenyl)-1,2,3,4-tetrahydro-1-benzazocine-5-carboxamide]
- APRI 0.5-1.5, patients ([1]; Baseline): 14%
- APRI <0.5, patients ([1]; Baseline): 84%
- APRI >1.5, patients ([1]; Baseline): 2%
- FIB-4 1.45-3.25, patients ([1]; Baseline): 17%
- FIB-4 <1.45, patients ([1]; Baseline): 82%
- FIB-4 >3.25, patients ([1]; Baseline): 1%
- APRI 0.5-1.5, patients ([1]; Week 24): 7%
- APRI <0.5, patients ([1]; Week 24): 93%
- APRI decreased 1 category from baseline, patients ([1]; Week 24): 14%
- FIB-4 1.45-3.25, patients ([1]; Week 24): 7%
- FIB-4 <1.45, patients ([1]; Week 24): 93%
- FIB-4 decreased 1 category from baseline, patients ([1]; Week 24): 13%
- APRI 0.5-1.5, patients ([1]; Week 48): 8%
- APRI <0.5, patients ([1]; Week 48): 91%
- APRI >1.5, patients ([1]; Week 48): 1%
- APRI decreased 1 category from baseline, patients ([1]; Week 48): 10%
- FIB-4 1.45-3.25, patients ([1]; Week 48): 5%
- FIB-4 <1.45, patients ([1]; Week 48): 94%
- FIB-4 >3.25, patients ([1]; Week 48): 1%
- FIB-4 decreased 1 category from baseline, patients ([1]; Week 48): 14%
- subjects with improvements in APRI and FIB-4 scores over time ([1]; pooled CVC 100 mg and 200 mg): ≥ 10%
- Deaths [2, 3]: 0 n
- SAE: Suicidal ideation [2, 3]: 0 n
- Grade 3 or 4 AE: Suicidal ideation ([2]; All CVC (N = 115), EFV (N = 28; Grade 4 event)): 0 n
- Deaths ([2]; CVC 100 mg (N = 58)): 0 n
- Grade 3 or 4 AE: Suicidal ideation ([2]; CVC 100 mg (N = 58)): 0 n
- SAE: Suicidal ideation ([2]; CVC 100 mg (N = 58)): 0 n
- Deaths ([2]; CVC 200 mg (N = 57)): 0 n
- Grade 3 or 4 AE: Suicidal ideation ([2]; CVC 200 mg (N = 57)): 0 n
- SAE: Suicidal ideation ([2]; CVC 200 mg (N = 57)): 0 n
- AE leading to discontinuation: Abnormal dreams ([2]; human, in vivo, 48 week): 0 n
- AE leading to discontinuation: Aggression ([2]; human, in vivo, 48 week): 1 n
- AE leading to discontinuation: Anxiety ([2]; human, in vivo, 48 week): 0 n
- AE leading to discontinuation: Depression ([2]; human, in vivo, 48 week): 1 n
- AE leading to discontinuation: Dermatitis allergic ([2]; human, in vivo, 48 week): 0 n
- AE leading to discontinuation: Ear and labyrinth disorders ([2]; human, in vivo, 48 week): 0 n
- AE leading to discontinuation: Insomnia ([2]; human, in vivo, 48 week): 0 n
- AE leading to discontinuation: Psychiatric disorders ([2]; human, in vivo, 48 week): 1 n
- AE leading to discontinuation: Rash ([2]; human, in vivo, 48 week): 0 n
- AE leading to discontinuation: Skin and subcutaneous tissue disorders ([2]; human, in vivo, 48 week): 0 n
- AE leading to discontinuation: Tachyphrenia ([2]; human, in vivo, 48 week): 0 n
- AE leading to discontinuation: Thinking abnormal ([2]; human, in vivo, 48 week): 1 n
- AE leading to discontinuation: Tinnitus ([2]; human, in vivo, 48 week): 0 n
- Any AE, % ([2]; human, in vivo, 48 week): (86%)
- Depression, % ([2]; human, in vivo, 48 week): (3%)
- Diarrhoea, % ([2]; human, in vivo, 48 week): (15%)
- Fatigue, % ([2]; human, in vivo, 48 week): (12%)
- Headache, % ([2]; human, in vivo, 48 week): (14%)
- Nausea, % ([2]; human, in vivo, 48 week): (16%)
- Rash, % ([2]; human, in vivo, 48 week): (12%)
- Subjects with AEs leading to discontinuation of study medication ([2]; human, in vivo, 48 week): 1 n
- Subjects with AEs related to study medication ([2]; human, in vivo, 48 week): 54 n
- Subjects with AEs, by worst grade severity: Grade 1 ([2]; human, in vivo, 48 week): 50 n
- Subjects with AEs, by worst grade severity: Grade 2 ([2]; human, in vivo, 48 week): 44 n
- Subjects with AEs, by worst grade severity: Grade 3 ([2]; human, in vivo, 48 week): 5 n
- Subjects with AEs, by worst grade severity: Grade 4 ([2]; human, in vivo, 48 week): 0 n
- Syphilis, % ([2]; human, in vivo, 48 week): (1%)
- Upper respiratory tract infection, % ([2]; human, in vivo, 48 week): (16%)
- AE leading to discontinuation: Disturbance in attention ([2]; human, in vivo, 48 weeks): 0 n
- AE leading to discontinuation: Dizziness ([2]; human, in vivo, 48 weeks): 0 n
- AE leading to discontinuation: Eye disorders ([2]; human, in vivo, 48 weeks): 0 n
- AE leading to discontinuation: Gastrointestinal disorders ([2]; human, in vivo, 48 weeks): 0 n
- AE leading to discontinuation: General disorders and administration site conditions ([2]; human, in vivo, 48 weeks): 1 n
- AE leading to discontinuation: Hypoaesthesia ([2]; human, in vivo, 48 weeks): 0 n
- AE leading to discontinuation: Malaise ([2]; human, in vivo, 48 weeks): 1 n
- AE leading to discontinuation: Musculoskeletal and connective tissue disorders ([2]; human, in vivo, 48 weeks): 0 n
- AE leading to discontinuation: Musculoskeletal discomfort ([2]; human, in vivo, 48 weeks): 0 n
- AE leading to discontinuation: Nausea ([2]; human, in vivo, 48 weeks): 0 n
- AE leading to discontinuation: Nervous system disorders ([2]; human, in vivo, 48 weeks): 0 n
- AE leading to discontinuation: Photophobia ([2]; human, in vivo, 48 weeks): 0 n
- Abnormal dreams, % ([2]; human, in vivo, 48 weeks): (8%)
- Any AE leading to discontinuation of study drug ([2]; human, in vivo, 48 weeks): 1 n
- Any Grade 3 AE ([2]; human, in vivo, 48 weeks): 5 n
- Any Grade 4 AE ([2]; human, in vivo, 48 weeks): 0 n
- Any SAE ([2]; human, in vivo, 48 weeks): 2 n
- Dizziness, % ([2]; human, in vivo, 48 weeks): (10%)
- Grade 3 or 4 AE: Abdominal pain ([2]; human, in vivo, 48 weeks): 1 n
- Grade 3 or 4 AE: Blindness unilateral ([2]; human, in vivo, 48 weeks): 1 n
- Grade 3 or 4 AE: Blood creatine phosphokinase increased ([2]; human, in vivo, 48 weeks): 1 n
- Grade 3 or 4 AE: Cardiac disorders ([2]; human, in vivo, 48 weeks): 1 n
- Grade 3 or 4 AE: Corneal infection ([2]; human, in vivo, 48 weeks): 1 n
- Grade 3 or 4 AE: Depression ([2]; human, in vivo, 48 weeks): 0 n
- Grade 3 or 4 AE: Dermatitis allergic ([2]; human, in vivo, 48 weeks): 0 n
- Grade 3 or 4 AE: Ear and labyrinth disorders ([2]; human, in vivo, 48 weeks): 0 n
- Grade 3 or 4 AE: Eye disorders ([2]; human, in vivo, 48 weeks): 1 n
- Grade 3 or 4 AE: Gastrointestinal disorders ([2]; human, in vivo, 48 weeks): 1 n
- Grade 3 or 4 AE: General disorders and administration site conditions ([2]; human, in vivo, 48 weeks): 1 n
- Grade 3 or 4 AE: Infections and infestations ([2]; human, in vivo, 48 weeks): 1 n
- Grade 3 or 4 AE: Investigations ([2]; human, in vivo, 48 weeks): 1 n
- Grade 3 or 4 AE: Palpitations ([2]; human, in vivo, 48 weeks): 1 n
- Grade 3 or 4 AE: Psychiatric disorders ([2]; human, in vivo, 48 weeks): 1 n
- Grade 3 or 4 AE: Pyrexia ([2]; human, in vivo, 48 weeks): 1 n
- Grade 3 or 4 AE: Skin and subcutaneous tissue disorders ([2]; human, in vivo, 48 weeks): 0 n
- Grade 3 or 4 AE: Stress ([2]; human, in vivo, 48 weeks): 1 n
- Grade 3 or 4 AE: Tinnitus ([2]; human, in vivo, 48 weeks): 0 n
- Grade 3 or 4 AE: Weight decreased ([2]; human, in vivo, 48 weeks): 0 n
- Insomnia, % ([2]; human, in vivo, 48 weeks): (6)
- Lymphadenopathy, % ([2]; human, in vivo, 48 weeks): (6%)
- Nasopharyngitis, % ([2]; human, in vivo, 48 weeks): (9%)
- SAE: Blindness unilateral ([2]; human, in vivo, 48 weeks): 1 n
- SAE: Corneal infection ([2]; human, in vivo, 48 weeks): 1 n
- SAE: Depression ([2]; human, in vivo, 48 weeks): 0 n
- SAE: Eye disorders ([2]; human, in vivo, 48 weeks): 1 n
- SAE: Gastroenteritis ([2]; human, in vivo, 48 weeks): 1 n
- SAE: Infections and infestations ([2]; human, in vivo, 48 weeks): 2 n
- SAE: Psychiatric disorders ([2]; human, in vivo, 48 weeks): 0 n
- Subjects with serious AEs ([2]; human, in vivo, 48 weeks): 2 n
- Subjects with ≥1 AE ([2]; human, in vivo, 48 weeks): 99 n
